Results from PubChem BioAssay (NCI).
“And” between values parts separate entries of the source, which are not always exact repeats. Equal entries are not always repeated.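 Protocol summary: plate cells (96-well), add compound at 5 concentrations, incubate 48 h, interpolate endpoints linearly. GI50 = concentration required for 50% inhibition of growth. TGI: concentration producing complete growth inhibition.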

Experiments:
Assay in all cases: NCI tumour cell line growth inhibition, 48 h
SK-OV-3 ovarian = system: SK-OV-3 ovarian
SK-MEL-5 melanoma = system: SK-MEL-5 melanoma
HL-60(TB) leukemia = system: HL-60(TB) leukemia
SNB-19 CNS = system: SNB-19 CNS
HT29 colon = system: HT29 colon
KM12 colon = system: KM12 colon
IGROV1 ovarian = system: IGROV1 ovarian
HCT-15 colon = system: HCT-15 colon
COLO 205 colon = system: COLO 205 colon
786-0 renal = system: 786-0 renal

Structure (SMILES)	GI50 (SK-OV-3 ovarian) [µM]	TGI (SK-OV-3 ovarian) [µM]	GI50 (SK-MEL-5 melanoma) [µM]	TGI (SK-MEL-5 melanoma)	GI50 (HL-60(TB) leukemia) [µM]	TGI (HL-60(TB) leukemia)	GI50 (SNB-19 CNS) [µM]	TGI (SNB-19 CNS)	GI50 (HT29 colon) [µM]	TGI (HT29 colon)	GI50 (KM12 colon) [µM]	TGI (KM12 colon)	GI50 (IGROV1 ovarian) [µM]	TGI (IGROV1 ovarian)	GI50 (HCT-15 colon) [µM]	TGI (HCT-15 colon)	GI50 (COLO 205 colon) [µM]	TGI (COLO 205 colon)	GI50 (786-0 renal) [µM]	TGI (786-0 renal)
C#Cc1cccc(Nc2ncnc3ccc(-c4cncc(NS(C)(=O)=O)c4)cc23)c1	1.89	5.71	1.63	3.06 µM	1.87	6.83 µM	1.98	16.2 µM	1.86	6.28 µM	2.33	6.52 µM	0.309	1.68 µM	3.47	16.7 µM	1.68	3.94 µM	1.77	6.74 µM
CCSc1nc(N)c2cnn(C)c2n1	54.8	> 100	16.1	38.9 µM	52.1	> 100 µM	58.4	> 100 µM	58.4	> 100 µM	34.6	> 100 µM	53.5	> 100 µM	32	> 100 µM	29.9	> 100 µM	80	> 100 µM
COc1cc(CC(=O)c2ccc3c(c2)OCO3)cc(OC)c1OC	–	> 100	–	> 100 µM	–	> 100 µM	–	> 100 µM	–	> 100 µM	–	> 100 µM	–	> 100 µM	–	> 100 µM	–	> 100 µM	–	> 100 µM
CC1(C)CC2(C)OC2C2(C1)N=NC(=Nc1ccccc1)O2 (configuration not stated)	28.5	> 100	5.48	18.5 µM	5.26	26.1 µM	14.1	28 µM	2.95	10.9 µM	13.6	28.6 µM	2.48	5.99 µM	1.68	4.62 µM	10.9	24.9 µM	2.33	5.63 µM
CCOC(=O)Cc1csc(NC(=O)C(OC(=O)c2ccc(N)cc2)c2ccccc2)n1 (configuration not stated)	46.7	> 100	18.9	39.1 µM	18.4	92.5 µM	53	> 100 µM	39.9	> 100 µM	37.5	> 100 µM	52.8	> 100 µM	43.5	> 100 µM	46.2	> 100 µM	48.6	> 100 µM
Cn1c(COC(=O)NCCN2CCOCC2)nc2c(N3CCOCC3)nc(-c3ccccc3)nc21	4.79	16.1	1.64	3.05 µM	0.521	4.03 µM	1.57	3.31 µM	0.35	1.66 µM	1.53	3.4 µM	0.656	2.15 µM	0.46	1.87 µM	1.49	3.36 µM	0.843	2.23 µM
CCNC(=O)Oc1ccc(/C(=C(\C)c2ccc(Cl)cc2)c2ccc(OCCN3CCCCC3)cc2)cc1	8.52	21.3	1.79	3.17 µM	1.99	4.47 µM	4.77	16.2 µM	3.16	10.9 µM	3.81	15.4 µM	4.13	15.8 µM	2.49	7.72 µM	2.1	4.6 µM	1.79	3.43 µM
C[C@H](NC(=O)CCC(F)(F)F)C(=O)N[C@@H]1C(=O)N(CCO)c2ncccc2-c2ccccc21	> 100	> 100	> 100	> 100 µM	> 100	> 100 µM	> 100	> 100 µM	> 100	> 100 µM	> 100	> 100 µM	> 100	> 100 µM	> 100	> 100 µM	> 100	> 100 µM	> 100	> 100 µM
COc1cc(C(=O)N/N=C/c2cccc([N+](=O)[O-])c2)cc(OC)c1OC	31.9	> 100	2.76	> 100 µM	0.762	10.2 µM	55.1	> 100 µM	2.89	8.1 µM	2.41	> 100 µM	4.63	> 100 µM	6.78	> 100 µM	5.11	26.9 µM	5.8	> 100 µM
CCN(CC)CCOc1ccc(C2=C(c3ccccc3)CCc3cc(OC)ccc32)cc1	3.22	13.6	0.811	2.29 µM	8.99	26 µM	2.38	7.42 µM	0.445	1.87 µM	2.46	6.85 µM	1.8	4.39 µM	1.16	4.06 µM	1.53	3.04 µM	1.51	2.88 µM
CCCCCCCCCCCCCCCC(=O)N[C@H]1CCc2cc(OC)c(OC)c(OC)c2-c2ccc(SC)c(=O)cc21	–	6.19	1.52	5.73 µM and 4.4 µM	2.01	1.35 µM and 6.82 µM	2.46	9.27 µM and 8.35 µM	1.81	0.853 µM and 4.66 µM	0.845	8.4 µM and 3.73 µM	–	39 µM and 10.9 µM	1.54	5.01 µM and 4.04 µM	–	0.494 µM and 0.391 µM	3.31	8.24 µM and 12.9 µM
CCOC(=N)CC(=O)NC(C)c1ccccc1 (configuration not stated)	–	> 100	–	> 100 µM	–	> 100 µM	–	> 100 µM	–	> 100 µM	–	> 100 µM	–	> 100 µM	–	> 100 µM	–	> 100 µM	–	> 100 µM
CCCCCCCCCCCCCCCCCC1=NC(C)(C)CN1CCO	1.72	3.16	2.16	4.95 µM	1.81	4.11 µM	1.66	3.28 µM	1.37	2.66 µM	1.78	3.16 µM	1.56	3.11 µM	1.61	3 µM	1.55	2.93 µM	1.73	3.2 µM
